Measurements from patent US20040024033A1 (priority 1998, published 2004).
Read-outs that look alike come from different tables or passages of the source.

How the values were obtained:
[1] = test system: human KB-8511 epidermoid carcinoma; format: in vivo, female BALB/c nude mice
Protocol: (§1) Female or male BALB/c nu/nu (nude) mice are kept under sterile conditions (10 to 12 mice per Type III cage) with free access to food and water. Mice weigh between 20 and 25 grams at the time of tumor implantation. Tumors are established by subcutaneous injection of cells (minimum 2×10^6 cells in 100 μl PBS or medium) in carrier mice (4-8 mice per cell line). The resulting tumors are serially passaged for a minimum of three consecutive transplantations prior to start of treatment. Tumor fragments (approx. 25 mg) are implanted s.c. into the left flank of animals with a 13-gauge trocar needle while the mice are exposed to Forene (Abbott, Switzerland) anesthesia.
(§2) Tumor growth and body weights are monitored once or twice weekly. All treatments are administered intravenously (i.v.) and are initiated when a mean tumor volume of approximately 100 to 250 mm^3 is attained, depending upon the tumor type. Tumor volumes are determined using the formula […] (see Cancer Chemother. Pharmacol. 24:148-154, [1989]). Treatments with epothilone B vary the dose and the frequency of administration. Comparator agents are administered according to previously determined optimal treatment regimens. In addition to presenting changes in tumor volumes over the course of treatment, antitumor activity is expressed as T/C% (mean increase of tumor volumes of treated animals divided by the mean increase of tumor volumes of control animals multiplied by 100). Tumor regression (%) represents the smallest mean tumor volume compared to the mean tumor volume at the start of treatment, according to the formula Regression (%)=(1−Vend/Vstart)×100 (Vend=final mean tumor volume, Vstart=mean tumor volume at the start of treatment. Any animals in which the tumor has reached a size exceeding approximately 1.5 to 2.5 cm^3 are sacrificed. Details can be found below.
Tumor fragments of approximately 25 mg are implanted into the left flank of each female nude mouse (n=8 per group). Treatments are started on day 13 after tumor transplantation. epothilone B is administered once at 4 mg/kg, i.v. on day 13, or once per week at 4, 2 or 1 mg/kg, i.v., (on days 13, […] and 27). TAXOL® is administered i.v. at 20 mg/kg/day, every second day for 5 treatments (days 13, 15, 17, 19 and 21). Antitumor activity is expressed as T/C% (mean increase of tumor volumes of treated animals divided by the mean increase of tumor volumes of control animals multiplied by 100). Tumor regression (%) represents the final mean tumor volume compared to the mean tumor volume at the start of treatment. Changes (Δ) in Tumor volumes represent the tumor volume on the last treatment day minus the tumor volume on the first treatment day. Statistical analyses on Δ tumor volumes uses Dunnett's test to compare treatment groups to controls. […]

[2] = test system: A549 non-small cell lung tumors; format: in vivo, outbred athymic (nu/nu) mice; conditions: for % T/C / Dead/Total: extended observation, day 48
Protocol: Materials and methods pertaining to the human tumor xenograft model are as previously described.
Measurements are taken for an additional 2 weeks after completion of the regular 3 weeks experiments, to evaluate reversibility of drug-induced body weight loss, and sustainability of antitumor effects.
Treatments are started on day 13 post implantation (10 million cells/animal). Epothilone B is administered i.v. once weekly for 3 weeks (days 13, 20, and 27) at doses of 1, 2, 3, and 3.5 mg/kg. […] Final data are recorded on day 34. A single asterisk (*) indicates p<0.05 using a one-tailed Student's t-Test, and a double asterisk (**) indicates p<0.05 using a Dunnett's or Dunn's test.
Measurements for the experiment described in Table 1 are extended by additional two weeks. Final data are recorded on day 48. A single asterisk (*) indicates p<0.05 using a one-tailed Student's t-Test, and a double asterisk (**) indicates p<0.05 using a Dunneff's or Dunn's test.

[3] = test system: human estrogen-dependent ZR-75-1 breast tumor; experiment: Antitumor effect against s.c. transplanted ZR-75-1 tumors; format: in vivo, female BALB/c nude mice
Protocol: as §1, §2
Tumor fragments of approximately 25 mg are implanted into the left flank of each female nude mouse (n=6 per group); a subcutaneous estrogen pellet is placed in the opposite flank. Treatments are started on day 19 after tumor transplantation. epothilone B is administered at 1, 2 or 4 mg/kg, i.v., either once per week (days 19, 26 and 33) or every second week (days 19 and 33). Data presented are from animals surviving to day 47, the last day of controls. Antitumor activity is expressed as T/C% (mean increase of tumor volumes of treated animals divided by the mean increase of tumor volumes of control animals multiplied by 100). Tumor regression (%) represents the final mean tumor volume compared to the mean tumor volume at the start of treatment. Changes (A) in tumor volume represent the tumor volume on the last treatment day minus the tumor volume on the first treatment day.

[4] = 1 mg/kg i.v. once weekly for 3 weeks
[5] = 2 mg/kg i.v. once weekly for 3 weeks
[6] = 3 mg/kg i.v. once weekly for 3 weeks
[7] = 3.5 mg/kg i.v. once weekly for 3 weeks
[8] = 1 mg/kg, i.v. every 7 days, day 47
[9] = 2 mg/kg, i.v. every 7 days, day 47
[10] = 4 mg/kg, i.v. every 7 days, day 47
[11] = 4 mg/kg, i.v. every 14 days, day 47

Structure (SMILES): C/C(=C\c1csc(C)n1)[C@@H]1C[C@@H]2O[C@]2(C)CCC[C@H](C)[C@H](O)[C@@H](C)C(=O)C(C)(C)[C@@H](O)CC(=O)O1 [epothilone B]
- mice with undetectable tumors at the end of the experiment ([1]; 2 mg/kg/week): 1/8
- % Body Weight Change ([1]; 4 mg/kg, i.v. once per week): −5±7%
- T/C ([1]; 4 mg/kg, i.v. once per week): Regres-
- mice with undetectable tumors at the end of the experiment ([1]; 4 mg/kg/week): 5/8
- % T/C [2, 4]: 72%
- Dead/Total [2, 4]: 0/8
- % T/C [2, 5]: 49%
- Dead/Total [2, 5]: 0/8
- % T/C [2, 6]: 16%
- Dead/Total [2, 6]: 0/8
- % T/C [2, 7]: 12%
- Dead/Total [2, 7]: 0/8
- body weight loss ([2]; 3.5 and 3 mg/kg i.v. once weekly, reversible): approximately 15%
- Regression [3, 8]: none
- T/C (%) [3, 8]: 86%
- Δ Body Weight [3, 8]: 0.3 g
- Regression [3, 9]: none
- T/C (%) [3, 9]: 40%
- Δ Body Weight [3, 9]: -3.5 g
- T/C (%) [3, 10]: 1%
- Δ Body Weight [3, 10]: -1.2 g
- Regression ([3]; 4 mg/kg, i.v. every 7 days, transient): −8%
- Regression [3, 11]: none
- T/C (%) [3, 11]: 46%
- Δ Body Weight [3, 11]: -1.6 g
